Patent publication US20180284095A1, “BIOMARKERS ASSOCIATED WITH LSD1 INHIBITORS AND USES THEREOF” (Oryzon Genomics, S.A., priority 2015, published 2018)

Key:
Assay type in all cases: in vivo, mouse
TUBB3 = experiment: Microarray gene expression in brain, spleen and liver of Hsd:Athymic Nude-Foxn1nu mice (Example 7), housekeeping gene
Procedure: (§1) Total RNA was extracted from samples using the RNeasy extraction kit (Qiagen). The quality and concentration of the RNA was analyzed using the Agilent 2100 bioanalyzer and NanoDrop™ ND-1000 (Thermo Scientific). Samples with RNA integrity number (RIN)<6.0 were discarded. Total RNA (0.5 μg) amplification and labelling with Cy3 or Cy5 was carried out using the Eberwein mRNA amplification procedure (Van Gelder et al, Proc Natl Acad Sci USA 1990, 87:1663-1667) employing the MessageAmp™ aRNA amplification kit from Ambion (Applied Biosystems) following the manufacturer's instructions with minor modifications. As hybridization controls, plant mRNAs were transcribed from a plasmid containing the Zea mays Xet (xyloglucan endo-transglycosylase) cDNA and from a plasmid containing the Zea mays Zmmyb42 cDNA, independently prepared Cy3 and Cy5 labelled aRNA from these two RNAs using the Eberwein mRNA amplification procedure (as disclosed in Cerdà et al, Gen Comp Endocrinol 2008, 156:470-481).
(§2) The Cy3- and Cy5-labelled cRNAs and spikes were combined and hybridized to the microarray described in Example 2.6 for 17 h at 60° C. using Agilent's gaskets G2534-60002, G2534A hybridization chambers and DNA Hybridization Oven G2545A, according to the manufacturer's instructions. More specifically, equal amounts of Cy3 and Cy5 labeled Xet aRNA as well as equal amounts of Cy3 and Cy5 labeled Zmmyb42 aRNA were spiked into each mixture hybridized to the array. Arrays were washed and raw data were obtained using Agilent's DNA Microarray Scanner G2505B and Feature Extraction software (v10.1). The raw fluorescence intensity data were processed using applicant's proprietary software, and consists in the following operations:
(§3) Data normalization was carried out by an improved version of the nonlinear Q-splines normalization method (Workman et al., Genome Biol 2002, 3(9):research0048.1-0048.16). Normalization results were presented graphically as MA plots, as first described by Dudoit et al (Dudoit et al, Statistica Sinica, 2002, 12:111-139). Each point corresponds to a probe of the DNA array. M values (vertical axis) are the log-differential expression ratios. A values (horizontal axis) are the log-intensities of the spots. M and A are calculated from the Cy5 and Cy3 intensity values as of each spot. The DNA Array data is normalized using an improved version of non-linear Q-Splines normalization described by Workman et al., Genome Biol 2002, 3(9):research0048.1-0048.16. This process is useful to correct the deviation of the M values from the statistical assumption that most of the spots have M=0 in MA plots. The method allows the adjustment of all M values to form a cloud centered at M=0 in all intensity ranges. The data used to calculate the normalization fitting curve is the totality of the raw measurement dataset, excluding the signals for the probes for the spiked-in plant RNA controls and negative controls. In order to be able to normalize properly the data among all the experiments, the probe-set must include an important group of genes that should have no change (M=0) in the experiment. The normalization function is then applied to all the data, including controls.
(§4) Normalized and log-transformed data were used to calculate log 2 (sample/control) and Fold Change (FC) values. No background subtraction was applied to the signal intensity values during data processing, permitting robust selection of differentially expressed genes with low expression levels at the cost of potential sub-estimation of change when intensity levels are close to the array background level.
Powered Compound 3, 4 or 5 was dissolved in a 20% solution of 2-hydroxypropyl-R-cyclodextrin in water at the appropriate concentrations, vortexed and placed in an ultrasonic bath for 5 minutes.
Hsd:Athymic Nude-Foxn1nu mice were maintained in air- and temperature-controlled cages with regular supply of water and food. A maximum of 6 mice/cage were raised. […]

S100A8 = experiment: Microarray gene expression, brain of Hsd:ICR (CD1) mice, MTD study (Example 6); conditions: brain day 5, male CD1 mice pool
Procedure: as §1, §2
as §3, with “[…].” for “The method allows the adjustment of all M values to form a cloud centered at M=0 in all intensity ranges.”
as §4
(§5) Male Hsd:ICR (CD1®) mice were maintained in air- and temperature-controlled cages with regular supply of water and food. A maximum of 3 mice were raised per cage. Three mice were assigned to each group. Before the first administration, each mouse was labeled and weighed. Test compounds were administered orally using 1 ml syringes using animal feeding needles proper for mice at 10 ml/kg as follows. […]

S100A9 = experiment: as above; conditions: brain day 5, male CD1 mice pool
Procedure: as §1, §2
as §3, with “[…].” for “The method allows the adjustment of all M values to form a cloud centered at M=0 in all intensity ranges.”
as §4, §5

[1] = 3 mg/kg oral x5 days vs vehicle
[2] = 10 mg/kg oral x5 days vs vehicle
[3] = 30 mg/kg oral x5 days vs vehicle
[4] = 100 mg/kg oral x5 days vs vehicle

NC(=O)CN[C@H]1C[C@@H]1c1ccc(OCc2ccccc2)cc1 (racemic) [Compound 3, 2-(((trans)-2-(4-(benzyloxy)phenyl)cyclopropyl)amino)acetamide]
Hybridization signal sample_Cy5 (TUBB3; BRAIN, TUBB3, 5 mg/kg): 2574.04 | log2 (sample/control) (TUBB3; BRAIN, TUBB3, 5 mg/kg vs VEH): −0.223 | Hybridization signal sample_Cy5 (TUBB3; BRAIN, TUBB3, 10 mg/kg): 3248.86 | log2 (sample/control) (TUBB3; BRAIN, TUBB3, 10 mg/kg vs VEH): −0.06283 | Hybridization signal sample_Cy5 (TUBB3; BRAIN, TUBB3, 20 mg/kg): 3078.53 | log2 (sample/control) (TUBB3; BRAIN, TUBB3, 20 mg/kg vs VEH): −0.0238 | Hybridization signal sample_Cy5 (TUBB3; BRAIN, TUBB3, 40 mg/kg): 3573.76 | log2 (sample/control) (TUBB3; BRAIN, TUBB3, 40 mg/kg vs VEH): 0.02054 | Hybridization signal sample_Cy5 (TUBB3; LIVER, TUBB3, 5 mg/kg): 64.7691 | log2 (sample/control) (TUBB3; LIVER, TUBB3, 5 mg/kg vs VEH): −0.09742 | Hybridization signal sample_Cy5 (TUBB3; LIVER, TUBB3, 10 mg/kg): 68.7068 | log2 (sample/control) (TUBB3; LIVER, TUBB3, 10 mg/kg vs VEH): 0.02345 | Hybridization signal sample_Cy5 (TUBB3; LIVER, TUBB3, 20 mg/kg): 48.4567 | log2 (sample/control) (TUBB3; LIVER, TUBB3, 20 mg/kg vs VEH): −0.04225 | Hybridization signal sample_Cy5 (TUBB3; LIVER, TUBB3, 40 mg/kg): 46.9101 | log2 (sample/control) (TUBB3; LIVER, TUBB3, 40 mg/kg vs VEH): 0.01927 | Hybridization signal sample_Cy5 (TUBB3; SPLEEN, TUBB3, 5 mg/kg): 58.6845 | log2 (sample/control) (TUBB3; SPLEEN, TUBB3, 5 mg/kg vs VEH): −0.02944 | Hybridization signal sample_Cy5 (TUBB3; SPLEEN, TUBB3, 10 mg/kg): 52.6685 | log2 (sample/control) (TUBB3; SPLEEN, TUBB3, 10 mg/kg vs VEH): −0.02259 | Hybridization signal sample_Cy5 (TUBB3; SPLEEN, TUBB3, 20 mg/kg): 62.5361 | log2 (sample/control) (TUBB3; SPLEEN, TUBB3, 20 mg/kg vs VEH): −0.1183 | Hybridization signal sample_Cy5 (TUBB3; SPLEEN, TUBB3, 40 mg/kg): 88.3418 | log2 (sample/control) (TUBB3; SPLEEN, TUBB3, 40 mg/kg vs VEH): 0.169

CN1CCN(C(=O)CN[C@H]2C[C@@H]2c2ccc(OCc3ccccc3)cc2)CC1 (racemic) [Compound 4, 2-(((trans)-2-(4-(benzyloxy)phenyl)cyclopropyl)amino)-1-(4-methylpiperazin-1-yl)ethan-1-one]
Hybridization signal sample_Cy5 (TUBB3; BRAIN, TUBB3, 1 mg/kg): 4992.04 | log2 (sample/control) (TUBB3; BRAIN, TUBB3, 1 mg/kg vs VEH): −0.03825 | Hybridization signal sample_Cy5 (TUBB3; BRAIN, TUBB3, 3 mg/kg): 5129.04 | log2 (sample/control) (TUBB3; BRAIN, TUBB3, 3 mg/kg vs VEH): 0.07852 | Hybridization signal sample_Cy5 (TUBB3; BRAIN, TUBB3, 10 mg/kg): 5941.88 | log2 (sample/control) (TUBB3; BRAIN, TUBB3, 10 mg/kg vs VEH): −0.1778 | Hybridization signal sample_Cy5 (TUBB3; LIVER, TUBB3, 1 mg/kg): 91.4818 | log2 (sample/control) (TUBB3; LIVER, TUBB3, 1 mg/kg vs VEH): −0.409 | Hybridization signal sample_Cy5 (TUBB3; LIVER, TUBB3, 3 mg/kg): 66.7291 | log2 (sample/control) (TUBB3; LIVER, TUBB3, 3 mg/kg vs VEH): −0.2432 | Hybridization signal sample_Cy5 (TUBB3; LIVER, TUBB3, 10 mg/kg): 103.99 | log2 (sample/control) (TUBB3; LIVER, TUBB3, 10 mg/kg vs VEH): 0.6811 | Hybridization signal sample_Cy5 (TUBB3; SPLEEN, TUBB3, 1 mg/kg): 76.0246 | log2 (sample/control) (TUBB3; SPLEEN, TUBB3, 1 mg/kg vs VEH): 0.2314 | Hybridization signal sample_Cy5 (TUBB3; SPLEEN, TUBB3, 3 mg/kg): 114.188 | log2 (sample/control) (TUBB3; SPLEEN, TUBB3, 3 mg/kg vs VEH): 0.3352 | Hybridization signal sample_Cy5 (TUBB3; SPLEEN, TUBB3, 10 mg/kg): 154.437 | log2 (sample/control) (TUBB3; SPLEEN, TUBB3, 10 mg/kg vs VEH): 0.9169

N[C@H]1CCN(CCN[C@H]2C[C@@H]2c2ccc(-c3cccc(C(F)(F)F)c3)cc2)C1 (racemic) [Compound 5, (S)-1-(2-(((trans)-2-(3′-(trifluoromethyl)-[1,1′-biphenyl]-4-yl)cyclopropyl)amino)ethyl)pyrrolidin-3-amine]
Hybridization signal sample_Cy5 (TUBB3; BRAIN, TUBB3, 3.3 mg/kg): 4740.83 | log2 (sample/control) (TUBB3; BRAIN, TUBB3, 3.3 mg/kg vs VEH): −0.05126 | Hybridization signal sample_Cy5 (TUBB3; BRAIN, TUBB3, 11 mg/kg): 6217.25 | log2 (sample/control) (TUBB3; BRAIN, TUBB3, 11 mg/kg vs VEH): −0.02834 | Hybridization signal sample_Cy5 (TUBB3; BRAIN, TUBB3, 33 mg/kg): 5722.06 | log2 (sample/control) (TUBB3; BRAIN, TUBB3, 33 mg/kg vs VEH): 0.1073 | Hybridization signal sample_Cy5 (TUBB3; LIVER, TUBB3, 3.3 mg/kg): 49.0459 | log2 (sample/control) (TUBB3; LIVER, TUBB3, 3.3 mg/kg vs VEH): −0.4483 | Hybridization signal sample_Cy5 (TUBB3; LIVER, TUBB3, 11 mg/kg): 43.197 | log2 (sample/control) (TUBB3; LIVER, TUBB3, 11 mg/kg vs VEH): −0.6411 | Hybridization signal sample_Cy5 (TUBB3; LIVER, TUBB3, 33 mg/kg): 52.03 | log2 (sample/control) (TUBB3; LIVER, TUBB3, 33 mg/kg vs VEH): −0.4211 | Hybridization signal sample_Cy5 (TUBB3; SPLEEN, TUBB3, 3.3 mg/kg): 88.3418 | log2 (sample/control) (TUBB3; SPLEEN, TUBB3, 3.3 mg/kg vs VEH): 0.169 | Hybridization signal sample_Cy5 (TUBB3; SPLEEN, TUBB3, 11 mg/kg): 229.738 | log2 (sample/control) (TUBB3; SPLEEN, TUBB3, 11 mg/kg vs VEH): 1.521 | Hybridization signal sample_Cy5 (TUBB3; SPLEEN, TUBB3, 33 mg/kg): 167.826 | log2 (sample/control) (TUBB3; SPLEEN, TUBB3, 33 mg/kg vs VEH): 1.398

(+) 5-((((trans)-2-(4-(benzyloxy)phenyl)cyclopropyl)amino)methyl)-1,3,4-oxadiazol-2-amine [Compound 2]
Hybridization signal sample_Cy5 S100A8 (S100A8; 3 mg/kg oral x5 days): 126.363 | log2 (sample/control) S100A8 (S100A8; [1]): −0.1015 | Hybridization signal sample_Cy5 S100A8 (S100A8; 10 mg/kg oral x5 days): 69.9912 | log2 (sample/control) S100A8 (S100A8; [2]): −1.156 | Hybridization signal sample_Cy5 S100A8 (S100A8; 30 mg/kg oral x5 days): 80.188 | log2 (sample/control) S100A8 (S100A8; [3]): −1.029 | Hybridization signal sample_Cy5 S100A8 (S100A8; 100 mg/kg oral x5 days): 39.3591 | log2 (sample/control) S100A8 (S100A8; [4]): −1.921 | Hybridization signal sample_Cy5 S100A9 (S100A9; 3 mg/kg oral x5 days): 291.855 | log2 (sample/control) S100A9 (S100A9; [1]): −0.2512 | Hybridization signal sample_Cy5 S100A9 (S100A9; 10 mg/kg oral x5 days): 117.175 | log2 (sample/control) S100A9 (S100A9; [2]): −1.515 | Hybridization signal sample_Cy5 S100A9 (S100A9; 30 mg/kg oral x5 days): 149.542 | log2 (sample/control) S100A9 (S100A9; [3]): −1.285 | Hybridization signal sample_Cy5 S100A9 (S100A9; 100 mg/kg oral x5 days): 45.3442 | log2 (sample/control) S100A9 (S100A9; [4]): −2.876
